Laboratory results as given in patent US20100261642A1, “NUTRITIONAL FORMULATION WITH HIGH ENERGY CONTENT” (N.V. NUTRICIA, priority 2007, published 2010).

Tested on: intestinal epithelial cell lines T84
Experiment: IL-4 mediated barrier disruption in T84 monolayers (flux and transepithelial resistance)
Format: cell-based, human
Settings: for protective effect on IL-4 mediated barrier destruction (4 kD dextran flux), FIG. 1: 10 μM and 100 μM, time and dose dependent; for effect on IL-4 mediated barrier disruption (flux), in words: 100 μM, Table 1 summary, compared to control
Method: Monolayers (MC) of intestinal epithelial cell lines T84 (ATCC, USA) were cultured on transwell filters (Corning, Costar BV, The Netherlands) allowing both mucosal and serosal sampling and stimulation of human intestinal epithelial cells. Two weeks post confluency the monolayers were incubated in the presence of IL-4 (2 ng/ml, serosal compartment, Sigma, USA) with or without polyunsaturated fatty acids ARA, DHA, GLA, EPA, or control palmitic acid (10 μM or 100 μM, mucosal compartment, Sigma, St. Louis, USA). Cells were pre-incubated with ARA, DHA, EPA, or palmitic acid for 48 hr prior to the IL-4 incubation. The co-incubation of PUFA's and palmitic acid with IL-4 was continued for another 48 hr; while culture medium and additives were changed every 24 hr. The epithelial barrier function was determined by measuring the transepithelial resistance (TER) and permeability.

## CCCCC/C=C\C/C=C\C/C=C\C/C=C\CCCC(=O)O [ARA, arachidonic acid]
  protective effect on IL-4 mediated barrier destruction (4 kD dextran flux), FIG. 1: protect against IL-4 mediated barrier disruption
  effect on IL-4 mediated barrier disruption (flux), in words: inhibit the increased flux caused by IL-4

## CC/C=C\C/C=C\C/C=C\C/C=C\C/C=C\C/C=C\CCC(=O)O [DHA, docosahexaenoic acid]
100 μM fatty acid, mucosal, IL-4 2 ng/ml, serosal, 48 hr pre-incubation + 48 hr co-incubation, permeability (4 kD dextran flux)
  IL-4 Flux: 271
100 μM fatty acid, mucosal, IL-4 2 ng/ml, serosal, 48 hr pre-incubation + 48 hr co-incubation, transepithelial resistance
  IL-4 TER: 547

## CCCCC/C=C\C/C=C\C/C=C\CCCCC(=O)O [GLA]
  protective effect on IL-4 mediated barrier destruction (4 kD dextran flux), FIG. 1: protect against IL-4 mediated barrier disruption

## CCCCCCCCCCCCCCCC(=O)O [Palmitic acid, palmitic acid, reference compound]
  effect on IL-4 mediated barrier disruption (flux), in words: detrimental effect
